Assay results published in US12084442B2, “Naphthyridinone derivatives for the treatment of a disease or disorder” (Novartis AG, priority 2021, dated 2024).

Assays:
[1] = Pharmacokinetic properties in rats (IV and PO, whole blood LC-MS/MS); type: in vivo, Spargue Dawley/CD, male; conditions: for Rat AUC0-24 h 3 mg/kg: 3 mg/kg PO, suspension; for Rat AUC0-24 h 3 mg/kg / clearance: whole blood; for clearance: male, Sprague Dawley/CD, rat, IV dosing (0.3-1 mg/kg), CL = Dose/AUCinf; for Rat F: oral bioavailability, PO 3 mg/kg vs IV
Protocol: The pharmacokinetic properties of the compounds in rats were assessed by the following in vivo studies as described below.
At least four days before first drug administration, the rats (250-350 g) were anesthetized and, under aseptic conditions, catheters were surgically implanted into the left and right jugular veins (one for blood collection and the other one for intravenous injection). The catheters were exteriorized and fixed at the neck. For analgesic treatment, animals received analgesics before surgery and subsequently twice at appropriate times after surgery. The freely-moving animals equipped with catheters are kept individually in Macrolon cages, with free access to food and water throughout the experiment. After a recovery phase of at least 4 days, a single test compound was administered intravenously or orally, based upon the individual body weights.
The test articles were administered as solution in NMP:PEG 200 (10:90 v/v). Test articles where no solution can be obtained were rejected and not used in discrete or cassette dosing.
The test article were administered as suspension in MC:Tween 80:water (0.5:0.1:99.4 w/v/v).
The test article was administered as solution and as a bolus injection or as short I.V. infusion (30 seconds) via the left jugular vein catheter to conscious rats. The dose volume was 0.5 mL/kg body weight.
The test article was administered as a solution or suspension into the esophagus via a gavage tube to conscious rats. The dose volume was 5 mL/kg body weight. The exact start time of dosing and exact dose volume was noted.
Blood samples (20 μL) were collected from the right jugular vein catheter of cannulated animals (if JV catheter becomes non patent during the PK experiment (i.e., after dosing), blood can exceptionally be collected by tail vein puncture but it must be clearly specified into the in-life observations and data study rep) in tubes containing 10% of blood of 2% W/V K2 EDTA (2.0 mg/mL) at the different time intervals. Blood was collected following IV dosing at 0.083, 0.25, 0.5, 1, 2, 4, 7 and 24 h post dose. Blood was collected following PO dosing: 0.25, 0.5, 1, 2, 4, 7 and 24 h post dose.
The concentrations of compounds in whole blood were quantified using a liquid chromatography/mass spectrometry (LC-MS/MS) assay. 20 μL of each blood sample were precipitated with 100 μL of acetonitrile containing generic internal standards (carbamazepine/telmisartan/verapamil; c=50 ng/mL). The samples were vortexed thoroughly then centrifuged (5 min, 4° C.). The supernatant (80 μL) was transferred to a clean 96-well plate and mixed with 80 μL of water.
The samples were injected (1 to 20 μL) onto suitable analytical columns, using various isocratic methods and flow rates. Mobile phases typically consisting of 0.1% formic acid in water (solvent A) and 0.1% formic acid in acetonitrile (solvent B) with additional modifiers, if needed. Compounds and the internal standards were eluted at various retention times. The HPLC systems were interfaced to mass spectrometers. MS/MS analyses were carried out using electrospray ionization (ESI), typically in the positive ionization mode. Compounds and the internal standards were monitored using multiple reaction monitoring (MRM).
The standard curves employed for sample quantitation ranged over several log units. The lower limit of quantitation (LLOQ) in blood was determined and used as cutoff for the analytical sensitivity. Known amounts of the compounds were spiked into blood to create quality control samples with six known concentrations in singlets. The accuracy of the in vivo blood sample concentration determination was considered acceptable when the intra-assay accuracies obtained for the quality control samples were within 70% to 130% of the expected concentrations. Subsequently, from the time concentration data, pharmacokinetic parameters were calculated by non-compartmental regression analyses using an in house fitting program. […]

[2] = target: GIRK1/4 (Homo sapiens (Human), UniProt P48544+P48549); assay: GIRK1/4 activity assay (Quattro/IonWorks population patch clamp, inward potassium current); type: cell-based; conditions: GIRK1/4 HEK293 stable cells; current inhibition normalized to DMSO-only control
Protocol: The GIRK1/4 activity of a compound according to the present invention was assessed by the following in vitro method.
• a. External buffer: 10 mM NaCl, 50 mM Na Gluconate, 80 mM K Gluconate, 1.8 mM CaCl2, 1 mM MgCl2, 10 mM HEPES, 10 mM Glucose, pH 7.4; osmolarity 300-310 Osm/L. • b. Internal buffer: 30 mM KCl, 100 mM K Gluconate, 1 mM MgCl2, 10 mM HEPES, 1 mM EGTA, 10 mM NaCl, pH 7.2; osmolarity 284-292 Osm/L. Compounds: • c. Prepare seven-fold compound dilution series (10 mM to 20 uM) in 100% DMSO, in 384-well polypropylene plates. • d. Propafenone (Sigma Aldrich, catalog number P4670) was used as a positive control and DMSO for neutral control • e. Resuspend 1 μl of compounds in DMSO into 66.7 μl external buffer in 384-well polypropylene plate and load into Plate 1 section of Molecular Devices Quattro® Quattro Setup: • f. Load 384-well Population Patch Plate (Molecular Devices #9000-0902) into Quattro • g. Fill Quattro F-soak trough with 20% DMSO and 50% EtOH • h. Fill Quattro buffer trough with external buffer • i. Attach internal buffer flask to Quattro internal buffer tubing • j. Attach PBS (Phosphate Buffered Saline, minus Ca^++ and Mg^++, pH7.4) bottle to F-head & E-head wash on Quattro Antibiotic: • k. Resuspend 5.1-5.8 mg amphotericin B (Sigma Aldrich, catalog number A2411) in 175 μl DMSO • l. Add the resulting solution to 50 mL internal buffer and attach to antibiotic tubing port on Quattro Cells: • m. Use GIRK1/4 HEK293 stable cells (obtained from ChanTest, 14656 Neo Parkway, Cleveland, Ohio 44128) grown to ˜80% confluency in the following cell culture medium: DMEM containing 10% (v/v) Fetal Bovine Serum, Penicillin/Streptomycin (at “IX” concentration from a 100× stock), 0.5 mg/mL G418 and 0.1 mg/mL Zeocin. • n. Detach cells using Detachin (Genlantis, 11011 Torreyana, San Diego, CA 92121), washed with PBS (minus Ca^++ and Mg^++) and resuspend in external buffer (5 mL final volume at 2.0-2.1×10^6 cells/mL) • o. Load into cell trough of Quattro Assay Protocol:
Quattro was controlled using IonWorks v2 software to perform the following steps: • p. Added 3.5 μl cells plus 3.5 μl external buffer to wells of Quattro Patch Plate® • q. Circulated amphotericin B and internal buffer onto cells • r. Applied the following voltage protocol: Pulse 1: 15 mV for 300 milliseconds (ms), followed by Pulse 2: −120 mV for 400 ms, then Pulse 3: −15 mV for 400 ms, and finally Pulse 4: −120 mV to 40 mV over 500 ms (this is a voltage ramp). • s. Measured magnitude of inward potassium current at time point between 1200-1220 ms from start of Pulse 1 (i.e., during the voltage ramp phase). • t. Added 3.5 μl of diluted compounds (or DMSO) to wells and repeated […] (final compound concentrations are 50 uM to 0.1 uM, and each concentration was tested in quadruplicate—i.e., in 4 separate wells). • u. The difference between current magnitude pre vs. post-compound gave a measure of GIRK1/4 inhibition. Data Analysis:
IC50 values were calculated by plotting the percentage of current inhibition (normalized to the DMSO-only control) as a function of compound concentration using standard data analysis software.

GIRK1/4, sequence (P48549 whole entry): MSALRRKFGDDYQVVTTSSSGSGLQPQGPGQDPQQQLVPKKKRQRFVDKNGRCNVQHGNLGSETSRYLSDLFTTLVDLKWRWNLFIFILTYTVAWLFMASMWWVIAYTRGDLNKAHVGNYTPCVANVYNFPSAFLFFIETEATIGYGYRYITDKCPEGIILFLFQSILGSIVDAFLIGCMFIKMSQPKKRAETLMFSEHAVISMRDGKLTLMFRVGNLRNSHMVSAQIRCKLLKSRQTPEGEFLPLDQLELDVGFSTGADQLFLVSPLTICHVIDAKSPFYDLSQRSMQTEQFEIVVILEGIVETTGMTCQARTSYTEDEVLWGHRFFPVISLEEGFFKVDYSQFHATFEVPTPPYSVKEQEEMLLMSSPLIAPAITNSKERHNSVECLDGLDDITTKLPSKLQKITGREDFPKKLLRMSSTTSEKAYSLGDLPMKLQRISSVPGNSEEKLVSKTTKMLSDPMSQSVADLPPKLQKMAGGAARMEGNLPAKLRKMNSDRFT
GIRK1/4, sequence (P48544 whole entry): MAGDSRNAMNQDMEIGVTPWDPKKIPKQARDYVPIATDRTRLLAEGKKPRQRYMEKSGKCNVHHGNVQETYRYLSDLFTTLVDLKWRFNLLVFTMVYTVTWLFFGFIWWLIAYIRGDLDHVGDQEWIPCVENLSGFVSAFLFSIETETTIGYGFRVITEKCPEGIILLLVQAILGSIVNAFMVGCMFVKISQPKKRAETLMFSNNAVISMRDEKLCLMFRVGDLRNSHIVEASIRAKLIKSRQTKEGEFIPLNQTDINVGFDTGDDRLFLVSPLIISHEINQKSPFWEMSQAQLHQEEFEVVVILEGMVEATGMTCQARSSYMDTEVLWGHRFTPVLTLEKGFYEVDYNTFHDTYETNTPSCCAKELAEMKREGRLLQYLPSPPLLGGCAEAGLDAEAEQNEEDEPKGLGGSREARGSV

| Compound | Rat AUC0-24 h 3 mg/kg [1] [nMh] | clearance [1] [mL/min/kg] | Rat F [1] [%] | IC50 [2] [nM] |
| --- | --- | --- | --- | --- |
| Cc1cc(=O)c2c(CC(C)S(C)(=O)=O)ncc(Cl)c2n1-c1c(Cl)cc(OCCO)cc1Cl (single isomer, unassigned) [Example 21, 8-Chloro-1-(2,6-dichloro-4-(2-hydroxyethoxy)phenyl)-2-methyl-5-(2-(methylsulfonyl)propyl)-1,6-naphthyridin-4(1H)-one] | 3200 | 10.4 | 34 | 170 |
| Cc1cc(=O)c2c(OCC(=O)NCCO)ncc(Cl)c2n1-c1c(Cl)cc(OCCO)cc1Cl [Example 2, 2-((8-Chloro-1-(2,6-dichloro-4-(2-hydroxyethoxy)phenyl)-2-methyl-4-oxo-1,4-dihydro-1,6-naphthyridin-5-yl)oxy)-N-(2-hydroxyethyl)acetamide] | 1288 | 23 | 29 | 220 |
| CNC(=O)CCOc1ncc(Cl)c2c1c(=O)cc(C)n2-c1c(Cl)cc(OCC(C)(C)O)cc1Cl [Example 3, 3-((8-Chloro-1-(2,6-dichloro-4-(2-hydroxy-2-methylpropoxy)phenyl)-2-methyl-4-oxo-1,4-dihydro-1,6-naphthyridin-5-yl)oxy)-N-methylpropanamide] | 7738 | 5.7 | 47 | 220 |
| CNC(=O)COc1ncc(Cl)c2c1c(=O)cc(C)n2-c1c(Cl)cc(OCC(C)(C)O)cc1Cl [Example 4, 2-((8-Chloro-1-(2,6-dichloro-4-(2-hydroxy-2-methylpropoxy)phenyl)-2-methyl-4-oxo-1,4-dihydro-1,6-naphthyridin-5-yl)oxy)-N-methylacetamide] | 3674 | 5.5 | 22 | 160 |
| CNC(=O)[C@@H](C)COc1ncc(Cl)c2c1c(=O)cc(C)n2-c1c(Cl)cc(OCCO)cc1Cl [Example 8, (S)-3-((8-Chloro-1-(2,6-dichloro-4-(2-hydroxyethoxy)phenyl)-2-methyl-4-oxo-1,4-dihydro-1,6-naphthyridin-5-yl)oxy)-N,2-dimethylpropanamide] | – | – | – | 70 |
| CNC(=O)CCOc1ncc(Cl)c2c1c(=O)cc(C)n2-c1c(Cl)cc(OC[C@H](C)O)cc1Cl [Example 10, (S)-3-((8-Chloro-1-(2,6-dichloro-4-(2-hydroxypropoxy)phenyl)-2-methyl-4-oxo-1,4-dihydro-1,6-naphthyridin-5-yl)oxy)-N-methylpropanamide] | – | – | – | 330 |
| CNC(=O)C(C)(C)COc1ncc(Cl)c2c1c(=O)cc(C)n2-c1c(Cl)cc(OCCO)cc1Cl [Example 11, 3-((8-Chloro-1-(2,6-dichloro-4-(2-hydroxyethoxy)phenyl)-2-methyl-4-oxo-1,4-dihydro-1,6-naphthyridin-5-yl)oxy)-N,2,2-trimethylpropanamide] | – | – | – | 160 |
| CNC(=O)[C@H](O)COc1ncc(Cl)c2c1c(=O)cc(C)n2-c1c(Cl)cc(OCCO)cc1Cl [Example 12, (R)-3-((8-Chloro-1-(2,6-dichloro-4-(2-hydroxyethoxy)phenyl)-2-methyl-4-oxo-1,4-dihydro-1,6-naphthyridin-5-yl)oxy)-2-hydroxy-N-methylpropanamide] | – | – | – | 200 |
| CNC(=O)[C@@H](O)COc1ncc(Cl)c2c1c(=O)cc(C)n2-c1c(Cl)cc(OCC(C)(C)O)cc1Cl [Example 14, (S)-3-((8-chloro-1-(2,6-dichloro-4-(2-hydroxy-2-methylpropoxy)phenyl)-2-methyl-4-oxo-1,4-dihydro-1,6-naphthyridin-5-yl)oxy)-2-hydroxy-N-methylpropanamide] | – | – | – | 170 |
| CNC(=O)C(F)(F)COc1ncc(Cl)c2c1c(=O)cc(C)n2-c1c(Cl)cc(OCCO)cc1Cl [Example 16, 3-((8-Chloro-1-(2,6-dichloro-4-(2-hydroxyethoxy)phenyl)-2-methyl-4-oxo-1,4-dihydro-1,6-naphthyridin-5-yl)oxy)-2,2-difluoro-N-methylpropanamide] | – | – | – | 30 |
| Cc1cc(=O)c2c(OCCC(N)=O)ncc(Cl)c2n1-c1c(Cl)cc(OCCO)cc1Cl [Example 18] | 1702 | 38.9 | 65 | – |
